The nature of series [1]: Mouse pharmacokinetic study, intravenous dosing. As to conditions: male, C57BL/6, mouse, iv, plasma, 10 mg/kg i.v., read-out: Parent compound concentration following intravenous administration. The format is in vivo. In a few lines:
(§1)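 Male C57BL/6 mice (6-8 weeks, fed ad libitum); IV tail-vein 10 mg/kg in 10% DMSO/25% HP-β-CD, sampled 3 min–8 h; oral gavage 100 mg/kg in 5% DMSO/0.5% HPMC+0.1% Tween 80, sampled 5 min–24 h. N=3/time point, semi-serial facial-vein bleeds into K2EDTA; plasma levels by LC-MS/MS.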

For series [2], the system named is IL-1β cytokine output from THP-1s. Briefly: THP-1 AlphaLISA IL-1β cytokine assay. The conditions noted are these: Homo sapiens, THP-1, PMA-differentiated THP-1 cells, LPS 24 hr then Nigericin 1 hour; read-out: IL-1β (IC50). The format is cell-based, human. In a few lines: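 Percent inhibition, normalised to plus- and minus-LPS controls, was plotted against concentration to derive IC50. Differentiated THP-1 cells received compound 30 min ahead of LPS (24 h) and a 1 h nigericin pulse; AlphaLISA quantified supernatant cytokine.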

Series [3] is described as follows: Mouse pharmacokinetic study, oral administration. The conditions noted are these: male, C57BL/6, mouse, plasma, po, 100 mg/kg, plasma, male C57BL/6 mice, oral gavage 100 mg/kg; for concentration at 0.083 h: read-out: Parent compound concentrations following oral administration, Time 0.083 h; for concentration at 0.25 h: read-out: Parent compound concentrations following oral administration, Time 0.25 h; for concentration at 0.5 h: read-out: Parent compound concentrations following oral administration, Time 0.5 h; for concentration at 1 h: read-out: Parent compound concentrations following oral administration, Time 1 h; for concentration at 2 h: read-out: Parent compound concentrations following oral administration, Time 2 h; for concentration at 4 h: read-out: Parent compound concentrations following oral administration, Time 4 h; for concentration at 6 h: read-out: Parent compound concentrations following oral administration, Time 6 h; for concentration at 8 h: read-out: Parent compound concentrations following oral administration, Time 8 h; for concentration at 24 h: read-out: Parent compound concentrations following oral administration, Time 24 h. The format is in vivo. An outline of the steps:
as §1

Take `C=C(CC(=O)OC1C(C)(C)CC1(C)C)C(=O)OCC(=O)O` [Example 169, 2-((2-methylene-4-oxo-4-(2,2,4,4-tetramethylcyclobutoxy)butanoyl)oxy) acetic acid]: in series [1], the concentration at 0.05 h is 15600 ng/mL, the concentration at 0.133 h was determined as 6430 ng/mL, the concentration at 0.25 h came to 2800 ng/mL and the concentration at 0.5 h was 516 ng/mL. In addition, in series [1], the concentration at 1 h amounted to 8.6 ng/mL, the concentration at 2 h is 2.5 ng/mL, the concentration at 4 h came out at 1.3 ng/mL and the concentration at 6 h was less than 0.8 ng/mL. Moreover, the concentration at 8 h in series [1] is less than 0.8 ng/mL. The IC50 in series [2] worked out at 15.6 µM. For the same compound, in series [3], the concentration at 0.083 h is 37800 ng/mL, the concentration at 0.25 h worked out at 9880 ng/mL, the concentration at 0.5 h was found to be 4600 ng/mL and the concentration at 1 h is 1750 ng/mL. In series [3], the concentration at 2 h is 971 ng/mL, the concentration at 4 h came out at 215 ng/mL, the concentration at 6 h is 57 ng/mL and the concentration at 8 h worked out at 7.7 ng/mL. In addition, the concentration at 24 h in series [3] is less than 0.8 ng/mL.

With `C=C(CC(=O)O[C@H](C)CCCCCC)C(=O)OCc1nn[nH]n1` [Example 161, (R)-1-((2H-tetrazol-5-yl)methyl) 4-(octan-2-yl) 2-methylenesuccinate], in series [1], the concentration at 0.05 h stood at 8890 ng/mL, the concentration at 0.133 h was 2380 ng/mL, the concentration at 0.25 h was 846 ng/mL and the concentration at 0.5 h came to 343 ng/mL. Moreover, in series [1], the concentration at 1 h came to 90 ng/mL, the concentration at 2 h worked out at 5.1 ng/mL, the concentration at 4 h was less than 4 ng/mL and the concentration at 6 h was less than 4 ng/mL. Besides, in series [1], the concentration at 8 h is less than 4 ng/mL. Also, the IC50 in series [2] came out at 6.8 µM. In series [3], the concentration at 0.083 h is 7020 ng/mL, the concentration at 0.25 h stood at 4340 ng/mL, the concentration at 0.5 h was 1900 ng/mL and the concentration at 1 h is 1260 ng/mL. In series [3], the concentration at 2 h worked out at 727 ng/mL, the concentration at 4 h worked out at 186 ng/mL, the concentration at 6 h came to 108 ng/mL and the concentration at 8 h was 16 ng/mL. Further, the concentration at 24 h in series [3] was less than 4 ng/mL.

Regarding `C=C(CC(=O)OCCCCCC)C(=O)OCC(=O)O` [Example 94, 2-((4-(hexyloxy)-2-methylene-4-oxobutanoyl)oxy)acetic acid], in series [1], the concentration at 0.05 h worked out at 18000 ng/mL, the concentration at 0.133 h was 6070 ng/mL, the concentration at 0.25 h came out at 2440 ng/mL and the concentration at 0.5 h turned out to be 550 ng/mL. Moreover, in series [1], the concentration at 1 h worked out at 42 ng/mL, the concentration at 2 h amounted to 1.9 ng/mL, the concentration at 4 h turned out to be 1.4 ng/mL and the concentration at 6 h is less than 0.8 ng/mL. Also, the concentration at 8 h in series [1] is less than 0.8 ng/mL. For the same compound, in series [2], the IC50 is 5.3 µM. Besides, in series [3], the concentration at 0.083 h was found to be 27800 ng/mL, the concentration at 0.25 h came out at 12600 ng/mL, the concentration at 0.5 h is 8220 ng/mL and the concentration at 1 h worked out at 3110 ng/mL. In series [3], the concentration at 2 h turned out to be 2140 ng/mL, the concentration at 4 h was 392 ng/mL, the concentration at 6 h was found to be 196 ng/mL and the concentration at 8 h is 90 ng/mL. Further, in series [3], the concentration at 24 h is less than 0.8 ng/mL.

In the case of `C=C(CC(=O)O[C@@H](CC)CCCCC)C(=O)OCC(=O)O` [Example 170, (S)-2-(2-methylene-4-(octan-3-yloxy)-4-oxobutanoyloxy)acetic acid], in series [1], the concentration at 0.05 h came to 37200 ng/mL, the concentration at 0.133 h came out at 21900 ng/mL, the concentration at 0.25 h was 8930 ng/mL and the concentration at 0.5 h is 1660 ng/mL. Moreover, in series [1], the concentration at 1 h was found to be 476 ng/mL, the concentration at 2 h turned out to be 66 ng/mL, the concentration at 4 h was determined as 12 ng/mL and the concentration at 6 h was less than 4 ng/mL. Further, the concentration at 8 h in series [1] is less than 4 ng/mL. For the same compound, the IC50 in series [2] was 14.7 µM. In series [3], the concentration at 0.083 h was 55000 ng/mL, the concentration at 0.25 h was found to be 38400 ng/mL, the concentration at 0.5 h is 40600 ng/mL and the concentration at 1 h was 10100 ng/mL. Besides, in series [3], the concentration at 2 h was found to be 4420 ng/mL, the concentration at 4 h was 4400 ng/mL, the concentration at 6 h turned out to be 441 ng/mL and the concentration at 8 h worked out at 25 ng/mL. The concentration at 24 h in series [3] was 8.1 ng/mL.

Turning to `C=C(CC(=O)O[C@@H](C)CCCCCC)C(=O)OCc1nn[nH]n1` [Example 164, (S)-1-(2H-tetrazol-5-yl)methyl 4-octan-2-yl 2-methylenesuccinate], in series [1], the concentration at 0.05 h stood at 6690 ng/mL, the concentration at 0.133 h turned out to be 1250 ng/mL, the concentration at 0.25 h is 534 ng/mL and the concentration at 0.5 h came to 211 ng/mL. Moreover, in series [1], the concentration at 1 h was determined as 18 ng/mL, the concentration at 2 h is less than 4 ng/mL, the concentration at 4 h is less than 4 ng/mL and the concentration at 6 h was less than 4 ng/mL. For the same compound, in series [1], the concentration at 8 h was less than 4 ng/mL. In addition, in series [2], the 50% inhibitory concentration (IC50) turned out to be 2 µM. Moreover, in series [3], the concentration at 0.083 h is 3790 ng/mL, the concentration at 0.25 h is 2970 ng/mL, the concentration at 0.5 h amounted to 1860 ng/mL and the concentration at 1 h came to 968 ng/mL. For the same compound, in series [3], the concentration at 2 h was 585 ng/mL, the concentration at 4 h amounted to 381 ng/mL, the concentration at 6 h was found to be 135 ng/mL and the concentration at 8 h turned out to be 181 ng/mL. Besides, the concentration at 24 h in series [3] was less than 4 ng/mL.

For the compound `C=C(CC(=O)O[C@H](CC)CCCCC)C(=O)OCC(=O)O` [Example 178, (R)-2-(2-methylene-4-(octan-3-yloxy)-4-oxobutanoyloxy)acetic acid], in series [1], the concentration at 0.05 h came to 33400 ng/mL, the concentration at 0.133 h was 15500 ng/mL, the concentration at 0.25 h was 5680 ng/mL and the concentration at 0.5 h was found to be 2850 ng/mL. In series [1], the concentration at 1 h was 594 ng/mL, the concentration at 2 h turned out to be 61 ng/mL, the concentration at 4 h stood at 8.2 ng/mL and the concentration at 6 h is less than 4 ng/mL. In addition, the concentration at 8 h in series [1] was less than 4 ng/mL. For the same compound, the 50% inhibitory concentration (IC50) in series [2] stood at 24.6 µM. Moreover, in series [3], the concentration at 0.083 h was determined as 67100 ng/mL, the concentration at 0.25 h came out at 27100 ng/mL, the concentration at 0.5 h came out at 27900 ng/mL and the concentration at 1 h was 11000 ng/mL. In addition, in series [3], the concentration at 2 h worked out at 3660 ng/mL, the concentration at 4 h came out at 1460 ng/mL, the concentration at 6 h was 2240 ng/mL and the concentration at 8 h stood at 639 ng/mL. In addition, the concentration at 24 h in series [3] was less than 4 ng/mL.

Take `C=C(CC(=O)O[C@@H](CCCCCC)C(F)(F)F)C(=O)OCC(=O)O` [Example 182, (S)-2-((2-methylene-4-oxo-4-((1,1,1-trifluorooctan-2-yl)oxy)butanoyl)oxy)acetic acid]: in series [1], the concentration at 0.05 h was found to be 40800 ng/mL, the concentration at 0.133 h is 17900 ng/mL, the concentration at 0.25 h is 6740 ng/mL and the concentration at 0.5 h came to 2890 ng/mL. For the same compound, in series [1], the concentration at 1 h was 642 ng/mL, the concentration at 2 h was determined as 88 ng/mL, the concentration at 4 h amounted to 20 ng/mL and the concentration at 6 h is 6 ng/mL. In addition, in series [1], the concentration at 8 h was less than 4 ng/mL. Also, in series [2], the half-inhibitory concentration (IC50) came out at 6.1 µM. In addition, in series [3], the concentration at 0.083 h is 65900 ng/mL, the concentration at 0.25 h was found to be 46800 ng/mL, the concentration at 0.5 h was found to be 27900 ng/mL and the concentration at 1 h worked out at 13500 ng/mL. Further, in series [3], the concentration at 2 h turned out to be 5390 ng/mL, the concentration at 4 h stood at 1370 ng/mL, the concentration at 6 h was 1280 ng/mL and the concentration at 8 h was 417 ng/mL. For the same compound, the concentration at 24 h in series [3] turned out to be 5.9 ng/mL.

For the origin of these results see patent US12390437B2, “Itaconic acid derivatives and uses thereof intreating an inflammatory disease or a disease associated with an undesirable immune response” (Sitryx Therapeutics Limited, priority 2019, dated 2025).
